Reference: publication PMC12418703, “Avenanthramides and avenacosides as biomarkers of oat intake: a pharmacokinetic study of solid and liquid oat consumption under single and repeated dose conditions” (Nutrition Journal, 2025)
Where two headings read alike, the source gives them in different places.

Experiments:
[1] = PK-model estimation of oat product dose and dosing interval needed to reach plasma concentration above LLOQ; set-up: species or system humans; conditions: for estimated volume of liquid oats resulting in plasma concentration above LLOQ: consumption interval every 4 h; for estimated intake volume of liquid oats needed for plasma concentration above LLOQ: intake every 8 h
Procedure: A compartmental model with two absorption compartments and a plasma compartment with linear elimination for each molecule separately described better the experimental data from the single dose intake compared to a compartmental model of a single absorption compartment (Figure S3). Parameter estimation was performed using the non-linear mixed-effects approach with lognormal inter-individual variability in all three model parameters: distribution volume over bioavailability ( [drawing 1] ), absorption rate ( [drawing 2] ), elimination rate ( [drawing 3] ), (R package nlmixr2 [34]). The results were reported as population means with coefficient of variation (Table S1). The area under the curve (AUC) and Cmax were normalized (AUCnorm) for the nmol intake of each molecule. Statistical analysis was conducted with R software environment. The compounds were compared for their PK parameters within the same product and between products using repeated ANOVA approach (lme4 package) and then by pairwise comparison adjusted for post hoc Tukey-Kramer honestly significant difference. All statistical analyses were performed on log- transformed data. Based on the PK models built on the single-dose data, a linear relationship ( [drawing 4] was derived between dose and dosing interval (intake frequency, [drawing 5] ) to estimate the AVA intake needed to reach an average concentration (at steady state) that is measurable above lower limit of quantification (LLOQ). To translate the intake of AVAs from the linear relationship (Dose) to corresponding oat flake product intake, we estimated the content of AVAs in different products using reported data from the literature and assigned values, where possible. For the flakes, information in literature was available for AVA 2c, AVA 2p and AVA 2 f. Therefore, an average value for these compounds per food product was assigned while for the oat drink and for the less known AVAs; AVA 2pd and AVA 2fd, an average value based on the measured products in our laboratory was used (Table S2). In the second phase of the intervention, following a repeated dosing period of 4 days, plasma concentrations were determined over a dosing interval recorded by the individuals and were compared to their corresponding predicted values in blood. This comparison allowed for an assessment of the model’s accuracy in predicting AVAs’ behavior under repeated dosing conditions. Only experimental data above the limit of quantification were used for the comparison. Further, the data were tested for outliers with the interquartile range (IQR) approach and five observations were considered outliers and were removed.

[2] = set-up: method as in PMID 30977921; conditions: cited from earlier work
[3] = Plasma pharmacokinetics after a single dose of liquid or solid oat product (compartmental PK model); format: in vivo, humans; set-up: V/F: unit not given here; conditions: for Cmax / half-life / k el / Tmax: both sexes, oral; for Cmax / half-life / k el: human, plasma; for Cmax / half-life / k el / Tmax / ka / V/F / T1/2: single dose; for k el: elimination rate (Table 2), read-out: ke (converted); for Tmax: human plasma, derived from PK model; for V, population estimate (RSE%) / ka, population estimate (RSE%) / ke, population estimate (RSE%): Table S1 compartmental model; for ka: absorption rate (Table 2); for V/F: distribution volume over bioavailability
Source text: A non-blinded, randomized two-way crossover study with two different oat products (solid or liquid) was designed to investigate the AVA and AVE PK after a single dose and after repeated dosing at three different doses, for respective food (Fig. 2). Since this is the first study of its kind, it is impossible to make any formal calculation of the number of subjects needed to show meaningful differences in plasma biomarker concentrations, since the variation is unknown. However, similar studies aimed for BFI discovery and validation of dose-response have typically used 5–30 subjects. We therefore considered 23 individuals as a good compromise between feasibility and possibilities to assess variation in biomarker concentrations, estimate pharmacokinetic parameters, dose response and performing modelling with good precision. A scientist not involved in the study, conducted the randomization using the RAR method (RandomizeR package) in R software environment and provided lists with allocated treatment sequences. The study was conducted in two phases. In the first phase, blood samples were drawn from 11 men and 12 women for 24 h after consumption of a single dose of either a solid or a liquid oat product on-site. Breakfast and lunch were also provided on-site. A single dose of solid (62 g of oat flakes) or liquid (196 mL of oat drink) containing individual AVAs and AVEs shown in Table 1 were consumed, respectively. Blood plasma samples were drawn for 24 h (0 h, 0.25 h, 0.5 h, 0.75 h, 1 h, 1.5 h, 2 h, 3 h, 4 h, 5 h, 6 h, 7 h, 8 h, 24 h). After the 24 h, at the second phase of the study, the corresponding product was further consumed three times per day for four days at either a low, medium, or high intake dose (98, 196 and 392 mL for liquid oats and 31, 62 and 123 g for oat flakes with corresponding contents of AVAs and AVEs (Table 1) in a Latin square design. Therefore, a total number of 8 participants (2 males and 6 females) were randomized to the low dose, 9 participants (3 males and 6 females) for medium dose and 6 participants (3males and 3 females) for the high dose. Participants consumed the provided products at home and were instructed to follow their habitual diets with restriction on the consumption of oat products. A list of relevant foods was provided as a guide. The oat flakes were pre-portioned into individual bags and could be consumed without heating, mixed with yoghurt, cottage cheese, sour milk or any liquid. Participants were instructed to consume the full amount, including the liquid or food the oats were mixed with. Liquid oat products were weighed prior consumption, and they were to be consumed without any additional food. In all cases the time of oat intake was recorded in a food journal. On the fifth day of phase II, a fasting sample was drawn. Fecal samples were collected at baseline and at the end of phase II of the intervention. Between each study period, there was a wash-out period of eight days where participants consumed their habitual diet. After the washout, participants started with a single dose and repeated dosing for the other product in the same way as for the first. The participants were instructed to avoid foods containing oats during the last three days prior to the start of the study and during the last three days of the wash-out period. Compliance was assessed based on information provided in a compliance journal during the study weeks as well as through 2-day food records. The oat products used in the study were provided to the participants. The flakes for the single dose were consumed with water ad lib and for the repeated dose they could be mixed with water, yoghurt, milk, sour milk or cottage cheese with the condition that all the amount of the oat product is consumed. The oat drink was consumed without any other product.
All blood samples were collected into EDTA-coated tubes by a trained nurse. […]

[4] = control samples (digestion without proteins)
[5] = in the presence of whey protein
[6] = 62 g of oat flakes, solid oat product (62 g oat flakes)
[7] = 196 mL of oat drink, liquid oat product (196 mL oat drink)

SMILES | estimated volume of liquid oats resulting in plasma concentration above LLOQ [1] | estimated intake volume of liquid oats needed for plasma concentration above LLOQ [1] [mL] | Cmax ([3]; 62 g of oat flakes, solid) [nM] | half-life ([3]; 62 g of oat flakes, solid) [h] | k el ([3]; 62 g of oat flakes, solid) [s⁻¹] | Cmax ([3]; 196 mL of oat drink, liquid) [nM] | half-life ([3]; 196 mL of oat drink, liquid) [h] | k el ([3]; 196 mL of oat drink, liquid) [s⁻¹] | Tmax [3, 6] [h] | Tmax [3, 7] [h] | V, population estimate (RSE%) ([3]; liquid) | ka, population estimate (RSE%) ([3]; liquid) | ke, population estimate (RSE%) ([3]; liquid) | ka ([3]; liquid) | V/F ([3]; liquid) | V, population estimate (RSE%) ([3]; solid) | ka, population estimate (RSE%) ([3]; solid) | ke, population estimate (RSE%) ([3]; solid) | ka ([3]; solid) [h⁻¹] | V/F ([3]; solid) | also measured
O=C(/C=C/c1ccc(O)c(O)c1)Nc1ccc(O)cc1C(=O)O [AVA 2c] | about 30 mL | 65 | 4.91 ± 0.52 | 2.13 ± 0.16 | 9.17e-05 | 1.16 ± 0.12 | 1.58 ± 0.12 | 0.000122 | 1.37 ± 0.06 | 0.73 ± 0.03 | 500 (19) L | 5.9 (18) 1/h | 0.43 (17) 1/h | 6.0 ± 0.3^1 1/h | 430 ± 42^2 | 720 (22) L | 2.8 (10) 1/h | 0.31 (17) 1/h | 2.8 ± 0.16 | 698 ± 71 | bioaccessibility, times lower compared to AVA 2f [2, 4]: 3.9 times; bioaccessibility, times lower compared to AVA 2p [2, 4]: 4.6 times; bioaccessibility, times increase [2, 5]: 3.6 times
O=C(/C=C/c1ccc(O)cc1)Nc1ccc(O)cc1C(=O)O [AVA 2p] | about 30 mL | 65 | 20 ± 2.12 | 1.42 ± 0.11 | 0.000136 | 4.94 ± 0.5 | 1.3 | 0.000144 | 1.91 ± 0.08 | 1.21 ± 0.05 | 113 (16) L | 2.8 (9) 1/h | 0.52 (10) 1/h | 2.8 ± 0.2^1 1/h | 111 ± 11^1 | 220 (22) L | 1.6 (10) 1/h | 0.44 (17) 1/h | 1.50 ± 0.08 | 250 ± 26 | change of bioaccessibility [2, 5]: slight increase; T1/2 ([3]; liquid): 1.33 ± 0.10 h
COc1cc(/C=C/C(=O)Nc2ccc(O)cc2C(=O)O)ccc1O [AVA 2f] | – | – | 2.1 ± 0.22 | 2.28 ± 0.18 | 8.33e-05 | 0.69 ± 0.07 | 3.2 | 6.11e-05 | 1.11 ± 0.05 | 0.98 ± 0.04 | 1600 (34) L | 4.8 (3) 1/h | – | 5.0 ± 0.3^2 1/h | 1641 ± 168^2 | 2600 (5) L | 3.8 (26) 1/h | – | 3.8 ± 0.21 | 2561 ± 262 | average amount of oat flakes needed to reach measurable plasma levels (above LLOQ) ([1]; oat flakes consumed every 4 h): 235 g; amount of oat flakes needed to reach measurable plasma levels (above LLOQ) ([1]; oat flakes consumed every 8 h): 470 g; change of bioaccessibility [2, 5]: slight increase; T1/2 ([3]; liquid): 3.19 ± 0.25^2 h
